Values of other authors, collected in PMC3085958 (Journal of medicinal chemistry, 2011).
Marks after values point to notes of the source that are not given here.

Target: CB2 receptors (Homo sapiens, UniProt P34972)
Settings: Kb value

CB2 receptors, sequence (P34972 whole entry): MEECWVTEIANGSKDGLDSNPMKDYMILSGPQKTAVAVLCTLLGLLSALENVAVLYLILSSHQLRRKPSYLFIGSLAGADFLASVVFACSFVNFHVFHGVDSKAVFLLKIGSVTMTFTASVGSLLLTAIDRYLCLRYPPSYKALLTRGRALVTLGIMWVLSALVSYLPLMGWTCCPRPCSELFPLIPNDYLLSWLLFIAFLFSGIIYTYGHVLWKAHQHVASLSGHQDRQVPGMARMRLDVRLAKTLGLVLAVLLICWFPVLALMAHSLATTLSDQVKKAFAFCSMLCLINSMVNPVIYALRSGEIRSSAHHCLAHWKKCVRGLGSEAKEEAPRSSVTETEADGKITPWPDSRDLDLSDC

COc1cccc([C@H]2C[C@@H](N[C@H](C)c3ccccc3)C(=O)N2c2ccc(C(F)(F)F)cc2)c1 [Ligand 3]
CB2 Kb (in the CB2 Ki column): > 1,980 ^c nM
